Source: publication PMC3871529, “At a Supra-Physiological Concentration, Human Sexual Hormones Act as Quorum-Sensing Inhibitors” (PLoS ONE, 2013)

Key:
RhlR = target: T1, RhlR (Pseudomonas aeruginosa, UniProt P54292); test: E. coli bioindicator expressing RhlR (pAL101, rhlI::luxCDABE luminescence); assay type: cell-based; details: C4-HSL 10 µM; QSIs at 0.1 mg/ml, naringenin and naringin at 0.5 mg/ml
T1 construct: expressed in transfected cells; host or cells: Escherichia coli JLD271 carrying pAL101 (pSB401-derivative, rhlR+ rhlI::luxCDABE)
Description: We determined whether the AHL-binding transcriptional factors LasR and RhlR were impaired in their capacity to activate expression of the QS-regulated genes in the presence of various QSIs. This was achieved by using two E. coli bioindicator strains expressing either LasR or RhlR proteins and harboring an appropriate reporter lux operon for measuring their transcriptional activity in the presence of OC12-HSL at 100 µM and C4-HSL at 10 µM, respectively. Adding C4-HSL to the pAL101-bioindicator or OC12-HSL to the pAL105-bioindicator induced the expression of the reporter lux operon and the consequent production of luminescence. In contrast, only background levels of luminescence were detected in control strains harboring the plasmids pAL102 or pAL106, which lacks the rhlR or lasR gene, respectively.
Figure 7 QSIs modulated activity of the AHL-sensors in P. aeruginosa. Luminescence of the reporting operon lux, expressed in relative light units (RLU/OD600), was measured in E. coli bioindicator strains harboring the LasR (A) and RhlR (B) AHL-sensing systems of P. aeruginosa in the presence of […]. The QSIs estradiol, estrone, estriol and hordenine were added at 0.1 mg/ml, while naringenin and naringin, added at 0.5 mg/ml, were used as QSI-reference and non-QSI reference, respectively. Each test (n = 6) was compared with the DMSO-condition using Student's t test. Asterisks indicate statistically different data (p value of ≤0.01).
Escherichia coli JLD271 biosensor strains harboring LasR- and RhlR-based plasmids pAL105 and pAL101 and control plasmids pAL106 (LasR^-) and pAL102 (RhlR^−) (Table 1) were prepared according to Vandeputte et al.. Briefly, these strains were grown in LB medium supplemented with tetracycline (10 µg/ml) and chloramphenicol (25 µg/ml) for 24 h. Then 50-µl portions of the cultures were subcultured in 1 ml of LB medium (the starting OD600 ranged between 0.02 and 0.025 corresponding to 5.10^6 CFU) supplemented with 10 µl of DMSO (1% [vol/vol] final), 10 µl of naringenin or naringin dissolved in DMSO (2 mM, final concentration), or 10 µl of the molecule to be tested. To induce the expression of the lux operon, 0, 1, 10 or […] of C4-HSL was added to pAL101 and pAL102, while OC12-HSL was added to pAL105 and pAL106. After incubation for 2 h at 37°C with agitation (175 rpm), 200 µl of culture was transferred to 96-well OptiPlate-96 F plates from Perkin-Elmer, and the luminescence of each sample was measured by using a TopCount NXT device from Perkin-Elmer. The LasR(pAL106) and RhlR(pAL102) biosensors were used for background subtraction, and the OD600 values were measured to account for the differences in cell density. All experiments were performed in six replicates. The statistical significance of each test was evaluated by conducting Student's t tests using the GraphPad Prism software, and p values ≤0.05 were considered significant. Naringenin (4′,5,7-trihydroxyflavanone), naringin (4′,5,7-trihydroxyflavanone 7-rhamnoglucoside), the AHLs OC12-HSL and C4-HSL were purchased from Sigma-Aldrich and dissolved freshly in 100% DMSO before use. Tested QSIs were dissolved in 100% DMSO before use.

[1] = test system: QS-signal accumulation in P. aeruginosa; test: AHL (C4-HSL, OC12-HSL) quantification in P. aeruginosa cultures by mass spectrometry; assay type: cell-based, Pseudomonas aeruginosa; details: QSI at 0.5 mg/ml, 18-hour
Description: (§1) Figure 5 QSIs modulated QS-signal accumulation in P. aeruginosa. Growth kinetics (n = 6) of P. aeruginosa was measured (OD600) in the presence of the QSIs (estradiol, estrone, estriol, hordenine and 4-NPO) at 0.5 mg/ml using DMSO as a negative control. Cell counts were assessed (CFU/ml) at 8- and 18-hour, and C4-HSL and OC12-HSL concentration (µM) were determined in the bacterial cultures at 18-hour. Statistically different values (Student's t test with α = 0.01) are noted by asterisks.
(§2) QS gene transcription in P. aeruginosa PAO1 was monitored using PAO1 strains carrying various gene promoters fused to a lacZ reporter gene, as described in Vandeputte et al., 2010 and Table 1. PAO1 reporter strains were prepared according to Vandeputte et al.. Briefly, 18-hours-old liquid cultures (50 µl) were diluted in order to obtain a starting OD600 nm comprised between 0.02 and 0.03 in fresh LB medium supplemented with 50 mM MOPS pH 7.0 (1 ml), carbenicillin (300 µg/ml) and 10 µl of the QSIs to be tested (OD were measured using a SpectraMax M2 device from Molecular Devices). Test and control QSIs were diluted in 100% DMSO (resulting after addition to the growth medium in a 1% final concentration of DMSO). Cultures were incubated for 18 hours at 37°C with agitation. After incubation, cell densities were assessed spectrophotometrically (OD600 nm) and β-galactosidase assays were performed using the substrate o-nitrophenyl-β-D-galactopyranoside as described previously, [29]. Promoterless-lacZ fusions were used as controls. AHLs were quantified as described in Vandeputte et al.. All tests were performed in quintuplicates and three biological repetitions. The statistical significance of each test was evaluated by conducting Student's t tests and two-way ANOVA combined with the Tukey post-analysis test using the GraphPad Prism software and p values≤0.01 were considered significant.

[2] = test system: QS-regulated genes lasI, lasR, lasB, rhlI, rhlR, rhlA in P. aeruginosa PAO1; test: QS-regulated gene expression, lacZ transcriptional fusions in PAO1; assay type: cell-based, Pseudomonas aeruginosa; details: for expression of six QS-regulated genes (lasI, lasR, lasB, rhlI, rhlR, rhlA): QSI at 0.5 mg/ml, 18 hours at 37°C, β-galactosidase; for inhibition of expression of the regulators lasR and rhlR (rank) / impact on rhlI expression relative to naringenin, estradiol and estrone: QSIs at 0.5 mg/ml; for impact on rhlI expression relative to naringenin, estradiol and estrone: naringenin at 1 mg/ml
Description: Figure 6 QSIs modulated QS-regulated genes in P. aeruginosa. The β-galactosidase (b-Gal) activity in Miller unit (MU) of the transcriptional fusions lasI-lacZ (A), lasR-lacZ (B), lasB-lacZ (C), rhlI-lacZ (D), rhlR-lacZ (E), rhlA-lacZ (F), and aecA-lacZ(G) were measured in the presence of estradiol, estrone, estriol, hordenine at 0.5 mg/ml, and naringenin at 1 mg/ml as a positive control and DMSO as a negative control. The statistical significance of each test (n = 5 and three biological replicates) was evaluated by Student's t test (i.e. each test was compared with the DMSO condition). Asterisks indicate statistically different data (p value of ≤0.01).
as §2

P. aeruginosa = test: Growth kinetics of P. aeruginosa in the presence of QSIs; assay type: cell-based, Pseudomonas aeruginosa; details: QSI at 0.5 mg/ml, OD600 and CFU at 8 and 18 hour
Description: as §1, §2

T1 sequence (P54292 whole entry): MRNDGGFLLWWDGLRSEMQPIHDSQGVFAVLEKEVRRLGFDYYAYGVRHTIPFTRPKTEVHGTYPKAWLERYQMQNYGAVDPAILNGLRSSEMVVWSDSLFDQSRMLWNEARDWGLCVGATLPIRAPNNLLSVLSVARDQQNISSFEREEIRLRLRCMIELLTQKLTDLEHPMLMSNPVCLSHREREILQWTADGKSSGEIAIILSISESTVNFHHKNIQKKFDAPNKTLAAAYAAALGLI

Compound	effect on RhlR functionality (lux luminescence) (RhlR)	C4-HSL concentration in cell cultures [1]	OC12-HSL concentration in cell cultures [1]	expression of six QS-regulated genes (lasI, lasR, lasB, rhlI, rhlR, rhlA) [2]	inhibition of expression of the regulators lasR and rhlR (rank) [2]	impact on rhlI expression relative to naringenin, estradiol and estrone [2]	effect on growth of P. aeruginosa (P. aeruginosa)
CN(C)CCc1ccc(O)cc1 [Compound 3499, hordenine]	significant impact	reduction	reduction	decreased	the most	lower impact	slightly delayed the growth
3-Hydroxy-13-methyl-6,7,8,9,11,12,13,14,15,17-decahydro-cyclopenta[a] phenanthren-16-one [Compound 729, reference compound]	significant impact	reduction	reduction	decreased	–	–	did not affect the growth
C[C@]12CC[C@@H]3c4ccc(O)cc4CC[C@H]3[C@@H]1C[C@@H](O)[C@@H]2O [Estriol, estriol]	significant impact	reduction	reduction	decreased	the least	lower impact	did not affect the growth
